# From US20130245355A1, “3-HETARYL-SUBSTITUTED PYRROLO[2,3 B]PYRIDINE DERIVATIVES AS PDK1 INHIBITORS” (MERCK PATENT GMBH, priority 2010, published 2013)
# Experiments:
# PDK1 [1] = target: T1, PDK1 (Homo sapiens, UniProt O15530); experiment: Test for the inhibition of PDK1 (flashplate, 33P-ATP); settings: His6-PDK1 (1-50) 3.4 nM, 4 μM ATP, 30° C., 60 min; read-out: IC50 [PDK1] biochemical
# T1 construct: His6 (N)
# T1 sequence (O15530 51-556 limits assumed): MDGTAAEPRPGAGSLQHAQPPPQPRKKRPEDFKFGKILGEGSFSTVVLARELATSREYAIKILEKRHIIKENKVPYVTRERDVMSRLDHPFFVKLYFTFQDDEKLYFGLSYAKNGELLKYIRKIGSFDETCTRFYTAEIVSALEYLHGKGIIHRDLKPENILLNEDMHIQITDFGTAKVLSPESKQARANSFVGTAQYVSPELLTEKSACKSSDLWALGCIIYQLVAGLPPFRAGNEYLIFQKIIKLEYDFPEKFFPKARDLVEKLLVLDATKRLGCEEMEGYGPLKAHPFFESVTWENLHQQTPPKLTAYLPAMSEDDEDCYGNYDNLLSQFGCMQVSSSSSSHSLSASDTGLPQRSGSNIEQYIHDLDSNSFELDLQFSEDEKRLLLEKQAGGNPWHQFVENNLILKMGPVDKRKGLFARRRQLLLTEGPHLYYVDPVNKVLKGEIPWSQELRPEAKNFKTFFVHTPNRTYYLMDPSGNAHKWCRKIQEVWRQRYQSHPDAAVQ
# Experimental: The experimental batches are carried out in a flashplate system with 384 wells/microtitration plate.
# In each case, the PDK1 sample His6-PDK1 (1-50) (3.4 nM), the PDK1 substrate biotin-bA-bA-[…] (400 nM), 4 μM ATP (with 0.2μ Ci of ^33P-ATP/well) and the test substance in 50 μl of conventional experimental solution per well are incubated at 30° C. for 60 min. The test substances are employed in corresponding concentrations (if desired in a dilution series). The control is carried out without test substance. The reaction is stopped using standard methods and washed. The activity of the kinase is measured via the incorporated radioactivity in top count. In order to determine the non-specific kinase reaction (blank value), the experimental batches are carried out in the presence of 100 nM staurosporin.
# The radioactivity (decompositions per minute) of the blank value (no use of test substance in the presence of staurosporin) is subtracted from all other radioactivity values. The controls (kinase activity without test substance) are set equal to 100 percent and all other radioactivity values (after subtracting the blank value) are expressed set in relation thereto (for example in % of the control).
# IC50 values (50% inhibition) are determined with the aid of statistics programmes, such as, for example, RS1.
# PDK1 [2] = target: T2, PDK1 (Homo sapiens, UniProt O15530); experiment: Cellular testing of PDK1 kinase inhibitors in PC3 cells (Luminex, phospho-T308-PKB); type: cell-based; settings: 30 min, serum-free
# T2 construct: endogenous in cells; host or cells: PC3 cells
# T2 sequence (O15530 1-556): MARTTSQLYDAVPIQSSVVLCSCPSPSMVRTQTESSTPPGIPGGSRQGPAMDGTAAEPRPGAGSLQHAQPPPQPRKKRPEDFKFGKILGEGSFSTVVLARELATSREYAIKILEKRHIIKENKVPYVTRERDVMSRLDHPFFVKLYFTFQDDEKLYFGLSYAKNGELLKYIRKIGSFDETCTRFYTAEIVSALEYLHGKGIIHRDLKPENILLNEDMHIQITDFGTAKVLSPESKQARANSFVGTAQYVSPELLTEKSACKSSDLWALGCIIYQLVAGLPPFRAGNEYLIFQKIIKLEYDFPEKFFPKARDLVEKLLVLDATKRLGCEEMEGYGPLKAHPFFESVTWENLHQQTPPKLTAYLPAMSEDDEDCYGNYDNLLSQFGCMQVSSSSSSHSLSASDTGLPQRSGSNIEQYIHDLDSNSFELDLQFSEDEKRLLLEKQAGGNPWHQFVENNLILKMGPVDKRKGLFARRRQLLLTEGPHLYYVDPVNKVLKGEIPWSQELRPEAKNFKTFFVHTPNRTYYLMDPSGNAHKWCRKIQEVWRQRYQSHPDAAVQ
# Experimental: Method for the Cellular Testing of PDK1 Kinase Inhibitors in PC3 Cells.
# The cellular assay for the determination of the PDK1 kinase activity is carried out as a Luminex assay in the 96-well format. PC3 cells are sown at 20,000 cells per well in 100 μl of medium (45% of […]/45% of Ham's F12/10% of FCS) and incubated on the following day for 30 min with a serial dilution of the test substance (7 concentrations) under serum-free conditions. The cells are subsequently lysed using 90 μl of lysis buffer (20 mM tris/HCl pH 8.0, 150 mM NaCl, 1% of NP40, 10% of glycerol, 1% of phosphatase inhibitor I, 1% of phosphatase inhibitor II, 0.1% of protease inhibitor cocktail III, 0.01% of benzonase) per well, and the lysates are separated off from insoluble cell constituents by means of centrifugation through a 96-well filter plate (0.65 μm). The lysates are incubated overnight at 4° C. with shaking with Luminex beads to which an anti-total PKB antibody is coupled. The detection is carried out on the following day by addition of a phospho-T308-PKB antibody and a species-specific […] secondary antibody. The detection of phospho T308-PKB is carried out by measurement in a Luminex100 instrument by determination of 100 events per cavity in a measurement time of 60 sec. As pharmacological blank, the signals obtained from cells which have been treated with 10 μM staurosporin are subtracted from all other batches. The control value used for maximum phosphorylation of PKB on T308 are the signals from cells which have only been treated with the solvent (0.3% of DMSO). The values of the batches treated with test substance are calculated therefrom as percentage of control, and IC50 values are determined by means of RS 1.
SMILES,IC50 (PDK1 [1]) [nM],IC50 (PDK1 [2]) [nM]
"Cn1cc(-c2cnc3[nH]cc(-c4cc([C@](C)(O)c5ccccc5F)on4)c3c2)cn1 (single isomer, unassigned) [A55]",0.5 to 1000,0.5 to 1000
CCC(O)(c1cccc(F)c1)c1cc(-c2c[nH]c3ncc(-c4cnn(C)c4)cc23)no1 (centres unmarked) [A11],0.5 to 1000,0.5 to 1000
Cn1cc(-c2cnc3[nH]cc(-c4cc(C(C)(O)c5ccccc5)n(CCO)n4)c3c2)cn1 (centres unmarked) [A68],0.5 to 1000,1000 to 10000
"Cn1cc(-c2cnc3[nH]cc(-c4nnc([C@@H](O)c5ccccc5Cl)o4)c3c2)cn1 (single isomer, unassigned) [A130]",0.5 to 1000,0.5 to 1000
"Cn1cc(-c2cnc3[nH]cc(-c4nnc(Cc5cccc(F)c5)o4)c3c2)cn1 [A19, 3-[5-(3-fluorobenzyl)-1,3,4-oxadiazol-2-yl]-5-(1-methyl-1H-pyrazol-4-yl)-1H-pyrrolo[2,3-b]pyridine]",0.5 to 1000,1000 to 10000
"Cn1cc(-c2cnc3[nH]cc(-c4n[nH]c(C(C)(O)c5ccccc5)n4)c3c2)cn1 (centres unmarked) [A42, 1-{5-[5-(1-methyl-1H-pyrazol-4-yl)-1H-pyrrolo[2,3-b]pyridin-3-yl]-2H-1,2,4-triazol-3-yl}-1-phenylethanol]",0.5 to 1000,1000 to 10000
Cn1cc(-c2cnc3[nH]cc(-c4nnc(C5(c6ccccc6F)CC5)o4)c3c2)cn1 [A70],0.5 to 1000,0.5 to 1000
Cn1cc(-c2cnc3[nH]cc(-c4nnc(C(N)c5ccccc5Cl)o4)c3c2)cn1 (centres unmarked) [A118],0.5 to 1000,0.5 to 1000
Cn1cc(-c2cnc3[nH]cc(-c4n[nH]c(C(C)(O)c5ccccc5F)n4)c3c2)cn1 (centres unmarked) [A49],0.5 to 1000,1000 to 10000
Cn1cc(-c2cnc3[nH]cc(-c4nc(C(C)(O)c5cccc(F)c5F)no4)c3c2)cn1 (centres unmarked) [A78],0.5 to 1000,0.5 to 1000
Cn1cc(-c2cnc3[nH]cc(-c4nnc(C5(c6ccccc6Cl)CC5)o4)c3c2)cn1 [A83],0.5 to 1000,0.5 to 1000
"Cn1cc(-c2cnc3[nH]cc(-c4n[nH]c(C5(c6cccnc6)CC5)n4)c3c2)cn1 [A125, 5-(1-methyl-1H-pyrazol-4-yl)-3-[5-(1-pyridin-3-ylcyclopropyl)-1H-1,2,4-triazol-3-yl]-1H-pyrrolo[2,3-b]pyridine]",0.5 to 1000,1000 to 10000
Cn1cc(-c2cnc3[nH]cc(-c4noc(C(C)(O)c5cccc(F)c5)n4)c3c2)cn1 (centres unmarked) [A51],0.5 to 1000,1000 to 10000
CC(O)(c1cc(-c2c[nH]c3ncc(-c4cnn(CC(=O)N5CCCCC5)c4)cc23)no1)c1ccccc1F (centres unmarked) [A12],0.5 to 1000,0.5 to 1000
"Cn1cc(-c2cnc3[nH]cc(-c4nnc(C(C)(O)c5ccccc5Cl)o4)c3c2)cn1 (centres unmarked) [A132, I-(2-chlorophenyl)-1-{5-[5-(1-methyl-1H-pyrazol-4-yl)-1H-pyrrolo[2,3-b]pyridin-3-yl]-1,3,4-oxadiazol-2-yl}ethanol]",0.5 to 1000,1000 to 10000
Cn1cc(-c2cnc3[nH]cc(-c4n[nH]c(C(=O)c5ccccc5)n4)c3c2)cn1 [A39],1000 to 10000,1000 to 10000
"Cn1cc(-c2cnc3[nH]cc(-c4nnc(C(O)c5ccc(F)cc5)o4)c3c2)cn1 (centres unmarked) [A57, (4-fluorophenyl)-{5-[5-(1-methyl-1H-pyrazol-4-yl)-1H-pyrrolo[2,3-b]pyridin-3-yl]-1,3,4-oxadiazol-2-yl}methanol]",0.5 to 1000,1000 to 10000

SMILES,IC50 (PDK1 [1]) [nM],IC50 (PDK1 [2]) [nM]
Cn1cc(-c2cnc3[nH]cc(-c4nnc([C@H](N)c5ccccc5Cl)o4)c3c2)cn1 [A112],0.5 to 1000,0.5 to 1000
"Cn1cc(-c2cnc3[nH]cc(-c4cc(C(O)(c5ccnnc5)C(C)(C)C)on4)c3c2)cn1 (centres unmarked) [A100, 2,2-dimethyl-1-{3-[5-(1-methyl-1H-pyrazol-4-yl)-1H-pyrrolo-[2,3-b]pyridin-3-yl]isoxazol-5-yl}-1-pyridazin-4-ylpropan-1-ol]",0.5 to 1000,1000 to 10000
Cn1cc(-c2cnc3[nH]cc(-c4nnc(C(O)c5ccccc5F)o4)c3c2)cn1 (centres unmarked) [A43],0.5 to 1000,1000 to 10000
Cn1cc(-c2cnc3[nH]cc(-c4n[nH]c(Cc5cccc(F)c5F)n4)c3c2)cn1 [A16],0.5 to 1000,0.5 to 1000
C=C(c1cc(-c2c[nH]c3ncc(-c4cnn(C)c4)cc23)n[nH]1)c1ccccc1F [A28],0.5 to 1000,1000 to 10000
"Cn1cc(-c2cnc3[nH]cc(-c4nnc(C5(c6ccc(Cl)nc6)CC5)o4)c3c2)cn1 [A123, 3-{5-[1-(6-chloropyridin-3-yl)cyclopropyl]-1,3,4-oxadiazol-2-yl}-5-(1-methyl-1H-pyrazol-4-yl)-1H-pyrrolo[2,3-b]pyridine]",1000 to 10000,1000 to 10000
"Cn1cc(-c2cnc3[nH]cc(-c4cc([C@@](C)(O)c5ccccc5)on4)c3c2)cn1 (single isomer, unassigned) [A34]",0.5 to 1000,0.5 to 1000
"Cn1cc(-c2cnc3[nH]cc(-c4n[nH]c(C(O)c5ccccc5Cl)n4)c3c2)cn1 (centres unmarked) [A87, (2-chlorophenyl)-{5-[5-(1-methyl-1H-pyrazol-4-yl)-1H-pyrrolo[2,3-b]pyridin-3-yl]-2H-1,2,4-triazol-3-yl}-methanol]",0.5 to 1000,1000 to 10000
Cn1cc(-c2cnc3[nH]cc(-c4csc(Cc5ccccc5F)n4)c3c2)cn1 [A4],1000 to 10000,1000 to 10000
CN[C@@H](c1ccccc1)c1nnc(-c2c[nH]c3ncc(-c4cnn(C)c4)cc23)o1 [A116],0.5 to 1000,1000 to 10000
Cn1cc(-c2cnc3[nH]cc(-c4nnc(C(C)(O)c5ccccc5)o4)c3c2)cn1 (centres unmarked) [A45],0.5 to 1000,1000 to 10000
Cn1cc(-c2cnc3[nH]cc(-c4nnc(C(N)c5cc(F)cc(F)c5)o4)c3c2)cn1 (centres unmarked) [A117],1000 to 10000,1000 to 10000
Cn1cc(-c2cnc3[nH]cc(-c4nnc(C5(c6cccnc6)CCCC5)o4)c3c2)cn1 [A110],0.5 to 1000,1000 to 10000
Cn1cc(-c2cnc3[nH]cc(-c4noc(C(O)c5ccccc5)n4)c3c2)cn1 (centres unmarked) [A23],0.5 to 1000,1000 to 10000
"Cn1cc(-c2cnc3[nH]cc(-c4cc([C@](C)(O)c5cccc(F)c5)on4)c3c2)cn1 (single isomer, unassigned) [A63]",0.5 to 1000,1000 to 10000
Cn1cc(-c2cnc3[nH]cc(-c4nc(C(C)(O)c5cccc(Cl)c5)no4)c3c2)cn1 (centres unmarked) [A80],0.5 to 1000,0.5 to 1000
Cn1cc(-c2cnc3[nH]cc(-c4noc(C(C)(O)c5ccccc5F)n4)c3c2)cn1 (centres unmarked) [A50],0.5 to 1000,1000 to 10000
